Reference: ChEMBL document CHEMBL1201862, “PubChem BioAssay data set” (2004)
Values joined by “and” are separate entries in the source; they are usually repeats but may differ in a detail not shown here. Equal values may be shown once.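 96-well plates; 48 h exposure; 5 concentrations. Endpoints by linear interpolation between flanking doses. Not reached: highest tested concentration assigned. GI50 marks 50% less growth.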 Active and inactive are the calls of the source. Cut-off read from the data, not from the text of the source: active = GI50 up to about 1.1 µM and inactive = higher.

Legend:
Assay in all cases: NCI tumour cell line growth inhibition, 48 h
[1] = test system: U-251
[2] = test system: SNB-19
[3] = test system: SN12C
[4] = test system: SF-268
[5] = test system: M14
[6] = test system: OVCAR-4
[7] = test system: NCI/ADR-RES
[8] = test system: EKVX
[9] = test system: MOLT-4
[10] = test system: SF-539
[11] = test system: OVCAR-8
[12] = test system: PC-3
[13] = test system: HCT-116
[14] = test system: HOP-62
[15] = test system: DU-145
[16] = test system: HCC 2998
[17] = test system: COLO 205
[18] = test system: SF-295
[19] = test system: LOX IMVI
[20] = test system: MDA-N
[21] = test system: T47D
[22] = test system: SK-MEL-5
[23] = test system: OVCAR-3
[24] = test system: UACC-62
[25] = test system: NCI-H460
[26] = test system: SNB-75
[27] = test system: A549
[28] = test system: OVCAR-5
[29] = test system: SK-MEL-2
[30] = test system: SK-MEL-28
[31] = test system: NCI-H226
[32] = test system: A498
[33] = test system: RXF 393
[34] = test system: UACC-257
[35] = test system: ACHN
[36] = test system: K562
[37] = test system: HCT-15
[38] = test system: MDA-MB-231
[39] = test system: NCI-H522
[40] = test system: KM12
[41] = test system: CCRF-CEM
[42] = test system: NCI-H23
[43] = test system: TK-10
[44] = test system: HOP-92
[45] = test system: HT-29
[46] = test system: BT-549
[47] = test system: SW-620
[48] = test system: SK-OV-3
[49] = test system: MCF7
[50] = test system: CAKI-1
[51] = test system: IGROV-1
[52] = test system: MDA-MB-435
[53] = test system: UO-31
[54] = test system: HL-60
[55] = test system: 786-0
[56] = test system: SR
[57] = test system: RPMI-8226
[58] = test system: Malme-3M

SMILES: Cc1cc(NCCCCCCNc2cc(C)nc3ccc(N)cc23)c2cc(N)ccc2n1
- GI50 [1]: 62.8 µM (inactive)
- GI50 [2]: 58.5 µM (inactive)

SMILES: O=C1Oc2ccccc2C(=O)/C1=C/NC(=S)Nc1ccccc1
- GI50 [3]: 40.1 µM (inactive)
- GI50 [4]: 22.3 µM (inactive)
- GI50 [5]: 27 µM (inactive)
- GI50 [6]: 39.6 µM (inactive)
- GI50 [7]: 38.5 µM (inactive)
- GI50 [8]: 56.5 µM (inactive)
- GI50 [9]: 31.8 µM (inactive)
- GI50 [10]: 28.7 µM (inactive)
- GI50 [11]: 44.3 µM (inactive)
- GI50 [12]: 55.6 µM (inactive)
- GI50 [13]: 34.8 µM (inactive)
- GI50 [14]: 33.6 µM (inactive)
- GI50 [15]: 46.1 µM (inactive)
- GI50 [16]: 40 µM (inactive)
- GI50 [17]: 44.7 µM (inactive)
- GI50 [18]: 52.2 µM (inactive)
- GI50 [19]: 51.1 µM (inactive)
- GI50 [20]: 37.8 µM (inactive)
- GI50 [21]: 5.96 µM (inactive)
- GI50 [22]: 42.5 µM (inactive)
- GI50 [23]: 25.4 µM (inactive)
- GI50 [24]: 0.834 µM (active)
- GI50 [25]: 32.1 µM (inactive)
- GI50 [26]: 20.4 µM (inactive)
- GI50 [27]: 48.8 µM (inactive)
- GI50 [28]: 80.4 µM (inactive)
- GI50 [29]: 15.1 µM (inactive)
- GI50 [30]: 44.2 µM (inactive)
- GI50 [31]: 65.9 µM (inactive)
- GI50 [32]: 24.6 µM (inactive)
- GI50 [33]: 0.119 µM (active)
- GI50 [34]: 77.6 µM (inactive)
- GI50 [35]: 23.6 µM (inactive)
- GI50 [36]: 56.4 µM (inactive)
- GI50 [37]: 28.3 µM
- GI50 [38]: 29 µM (inactive)
- GI50 [39]: 30.1 µM (inactive)
- GI50 [40]: 49.4 µM (inactive)
- GI50 [41]: 28.5 µM (inactive)
- GI50 [42]: 61.4 µM (inactive)

SMILES: COC(=O)CCc1cc(OC)c2c(c1)C(C(=O)OC)C(c1ccc(OC)c(OC)c1)O2 (stereo not given)
- GI50 [3]: 62.4 µM (inactive)
- GI50 [6]: > 100 µM (inactive) and 58.5 µM (inactive)
- GI50 [8]: > 52.5 µM (inactive)
- GI50 [43]: > 100 µM (inactive) and > 91.4 µM (inactive)
- GI50 [16]: 60.5 µM (inactive)
- GI50 [44]: > 95.7 µM (inactive)
- GI50 [21]: 24.8 µM (inactive)
- GI50 [26]: 10.6 µM (inactive)
- GI50 [28]: > 79.1 µM (inactive)
- GI50 [45]: 5.32 µM (inactive)
- GI50 [33]: 34.9 µM (inactive)
- GI50 [34]: > 100 µM (inactive)
- GI50 [46]: 22.6 µM (inactive) and 42.4 µM (inactive)
- GI50 [35]: 59.2 µM (inactive)
- GI50 [42]: > 100 µM (inactive) and > 71 µM (inactive)

SMILES: CC(=O)/C(=C/NC(=S)Nc1ccc(Cl)c(Cl)c1)C(=O)Nc1ccccc1C
- GI50 [3]: 35.7 µM (inactive)
- GI50 [4]: 34.5 µM (inactive)
- GI50 [5]: 37 µM (inactive)
- GI50 [6]: 18.6 µM (inactive)
- GI50 [7]: 18.7 µM (inactive)
- GI50 [8]: 21.5 µM (inactive)
- GI50 [9]: 16 µM (inactive)
- GI50 [47]: 44.1 µM (inactive)
- GI50 [10]: 14.5 µM (inactive)
- GI50 [11]: 18.9 µM (inactive)
- GI50 [13]: 33.7 µM (inactive)
- GI50 [14]: 33.4 µM (inactive)
- GI50 [15]: 26.4 µM (inactive)
- GI50 [48]: 30.9 µM (inactive)
- GI50 [43]: 43.8 µM (inactive)
- GI50 [16]: 32.3 µM (inactive)
- GI50 [49]: 26.9 µM (inactive)
- GI50 [50]: 22.3 µM (inactive)
- GI50 [17]: 28.2 µM (inactive)
- GI50 [18]: 32 µM (inactive)
- GI50 [19]: 34 µM (inactive)
- GI50 [44]: 22 µM (inactive)
- GI50 [20]: 25.3 µM (inactive)
- GI50 [1]: 33 µM (inactive)
- GI50 [21]: 4.65 µM (inactive)
- GI50 [22]: 19.2 µM (inactive)
- GI50 [23]: 24.3 µM (inactive)
- GI50 [24]: 19 µM (inactive)
- GI50 [25]: 38.5 µM (inactive)
- GI50 [51]: 27.4 µM (inactive)
- GI50 [26]: 18.1 µM (inactive)
- GI50 [27]: 34.1 µM (inactive)
- GI50 [28]: 32 µM (inactive)
- GI50 [29]: 28 µM (inactive)
- GI50 [45]: 22.3 µM (inactive)
- GI50 [30]: 44.7 µM (inactive)
- GI50 [31]: 13.8 µM (inactive)
- GI50 [52]: 28.3 µM (inactive)
- GI50 [32]: 26.2 µM (inactive)
- GI50 [2]: 26.8 µM (inactive)
- GI50 [33]: 29.4 µM (inactive)
- GI50 [34]: 31.7 µM (inactive)
- GI50 [46]: 25.5 µM (inactive)
- GI50 [35]: 32.6 µM (inactive)
- GI50 [37]: 29.6 µM
- GI50 [38]: 27.8 µM (inactive)
- GI50 [53]: 22.3 µM (inactive)
- GI50 [40]: 24.9 µM (inactive)
- GI50 [54]: 17.1 µM (inactive)
- GI50 [55]: 35 µM (inactive)
- GI50 [42]: 23.6 µM (inactive)

SMILES: CC(=NNC(=S)Nc1ccccc1C)c1cccc(C(C)=NNC(=S)Nc2ccccc2C)n1
- GI50 [3]: 44.6 µM (inactive)
- GI50 [4]: 5.81 µM (inactive)
- GI50 [5]: 15.8 µM (inactive)
- GI50 [56]: 0.262 µM (active)
- GI50 [6]: 0.321 µM (active)
- GI50 [7]: 18.6 µM (inactive)
- GI50 [8]: 76 µM (inactive)
- GI50 [9]: 14.1 µM (inactive)
- GI50 [47]: 57.5 µM (inactive)
- GI50 [10]: 6.68 µM (inactive)
- GI50 [57]: > 100 µM (inactive)
- GI50 [11]: 17.4 µM (inactive)
- GI50 [12]: 32.1 µM (inactive)
- GI50 [13]: 18.4 µM (inactive)
- GI50 [14]: 6.56 µM (inactive)
- GI50 [58]: 15.5 µM (inactive)
- GI50 [15]: 23.1 µM (inactive)
- GI50 [48]: > 100 µM (inactive)
- GI50 [43]: 23.7 µM (inactive)
- GI50 [16]: > 100 µM (inactive)
- GI50 [49]: 65.2 µM (inactive)
- GI50 [50]: 42.9 µM (inactive)
- GI50 [17]: 10.9 µM (inactive)
- GI50 [18]: 8.93 µM (inactive)
- GI50 [19]: 6.9 µM (inactive)
- GI50 [44]: 11.4 µM (inactive)
- GI50 [20]: > 100 µM (inactive)
- GI50 [1]: 34.4 µM (inactive)
- GI50 [21]: > 100 µM (inactive)
- GI50 [22]: 1.3 µM (inactive)
- GI50 [24]: 45.1 µM (inactive)
- GI50 [25]: 15.3 µM (inactive)
- GI50 [51]: 26.3 µM (inactive)
- GI50 [26]: 2.36 µM (inactive)
- GI50 [27]: 24.2 µM (inactive)
- GI50 [28]: > 100 µM (inactive)
- GI50 [29]: 74.3 µM (inactive)
- GI50 [45]: 39 µM (inactive)
- GI50 [30]: 13 µM (inactive)
- GI50 [31]: 9.73 µM (inactive)
- GI50 [52]: 60.4 µM (inactive)
- GI50 [32]: > 100 µM (inactive)
- GI50 [2]: > 100 µM (inactive)
- GI50 [33]: 13.4 µM (inactive)
- GI50 [34]: 27.6 µM (inactive)
- GI50 [35]: 4.15 µM (inactive)
- GI50 [36]: 31.4 µM (inactive)
- GI50 [37]: 8.63 µM
- GI50 [53]: 45.9 µM (inactive)
- GI50 [40]: 24 µM (inactive)
- GI50 [54]: 19.7 µM (inactive)
- GI50 [55]: 4.13 µM (inactive)
- GI50 [41]: 3.59 µM (inactive)
- GI50 [42]: 65.3 µM (inactive)

SMILES: O=C1c2ccccc2-c2nnc(-c3ccccc3)cc21
- GI50 [4]: > 10 µM (inactive)
- GI50 [5]: > 10 µM (inactive)
- GI50 [56]: 3.83 µM (inactive)
- GI50 [6]: > 10 µM (inactive)
- GI50 [7]: > 10 µM (inactive)
- GI50 [9]: 3.01 µM (inactive)
- GI50 [47]: 7.6 µM (inactive)
- GI50 [57]: > 10 µM (inactive)
- GI50 [14]: > 10 µM (inactive)
- GI50 [58]: > 10 µM (inactive)
- GI50 [48]: > 10 µM (inactive)
- GI50 [49]: 3.37 µM (inactive)
- GI50 [50]: > 10 µM (inactive)
- GI50 [17]: > 10 µM (inactive)
- GI50 [1]: > 10 µM (inactive)
- GI50 [21]: 4.48 µM (inactive)
- GI50 [22]: > 10 µM (inactive)
- GI50 [24]: > 10 µM (inactive)
- GI50 [25]: > 10 µM (inactive)
- GI50 [51]: > 10 µM (inactive)
- GI50 [26]: > 10 µM (inactive)
- GI50 [27]: > 10 µM (inactive)
- GI50 [28]: > 10 µM (inactive)
- GI50 [29]: > 10 µM (inactive)
- GI50 [30]: > 10 µM (inactive)
- GI50 [52]: > 10 µM (inactive)
- GI50 [33]: > 10 µM (inactive)
- GI50 [35]: > 10 µM (inactive)
- GI50 [36]: 3.61 µM (inactive)
- GI50 [54]: 5.05 µM (inactive)
- GI50 [55]: > 10 µM (inactive)
- GI50 [41]: 3.25 µM (inactive)
- GI50 [42]: > 10 µM (inactive)
